The source of these data is US20230093861A1, “RAPAMYCIN ANALOGS AS MTOR INHIBITORS” (Revolution Medicines, Inc., priority 2017, published 2023).

One assay concerns P-P70S6K (T389). Nature of the assay: Cell based AlphaLISA assay, inhibition of P-P70S6K (T389) (mTORC1 substrate phosphorylation) in MDA-MB-468 cells. Conditions: Homo sapiens, 4 h, AlphaLISA, two to four hours at 37° C., read-out: pIC50 for Inhibition of mTORC1 and mTORC2 Substrate Phosphorylation, P-P70S6K-(T389) (converted). The method, then: (§1) Cell Based AlphaLISA Assays for Determining IC50 for Inhibition of P-Akt (S473), P-4E-BP1 (T37/46), and P-P70S6K (T389) in MDA-MB-468 Cells
(§2) mTOR Kinase Cellular Assay
(§3) To measure functional activity of mTORC1 and mTORC2 in cells the phosphorylation of 4EBP1 (Thr37/46) and P70S6K (Thr389), and AKT1/2/3 (Ser473) was monitored using AlphaLisa SureFire Ultra Kits (Perkin Elmer). […] Incubations were terminated by removal of the assay buffer and addition of lysis buffer provided with the assay kit. Samples were processed according to the manufacturer's instructions. The Alpha signal from the respective phosphoproteins was measured in duplicate using a microplate reader (Envision, Perkin-Elmer or Spectramax M5, Molecular Devices). Inhibitor concentration response curves were analyzed using normalized IC50 regression curve fitting with control based normalization.

For the next assay, the system named is P-Akt (S473). Nature of the assay: Cell based AlphaLISA assay, inhibition of P-Akt (S473) (mTORC2 substrate phosphorylation) in MDA-MB-468 cells. Conditions: Homo sapiens, MDA-MB-468, 4 h, AlphaLISA, two to four hours at 37° C., read-out: pIC50 for Inhibition of mTORC1 and mTORC2 Substrate Phosphorylation, p-AKT 1/2/3 -(S473) (converted). On the procedure: as §1, §2, §3

The test system of the next assay is P-4E-BP1 (T37/46). Briefly: Cell based AlphaLISA assay, inhibition of P-4E-BP1 (T37/46) (mTORC1 substrate phosphorylation) in MDA-MB-468 cells. Conditions: Homo sapiens, MDA-MB-468, 4 h, AlphaLISA, two to four hours at 37° C., read-out: pIC50 for Inhibition of mTORC1 and mTORC2 Substrate Phosphorylation, P-4E-BP1-(T37/46) (converted). On the procedure: as §1, §2, §3

Regarding `CO[C@H]1C[C@@H]2CC[C@@H](C)[C@@](O)(O2)C(=O)C(=O)N2CCCC[C@H]2C(=O)O[C@H]([C@H](C)C[C@@H]2CC[C@@H](OCc3cccc(-c4cnc(N5CCN(S(=O)(=O)CCc6cn(CCOCCOCCOCCC(=O)NCCCCn7nc(-c8ccc9oc(N)nc9c8)c8c(N)ncnc87)nn6)CC5)nc4)c3)[C@H](OC)C2)CC(=O)[C@H](C)/C=C(\C)[C@@H](O)[C@@H](OC)C(=O)[C@H](C)C[C@H](C)/C=C/C=C/C=C/1C` [Example 27], the values for the IC50 in the assay on P-P70S6K (T389), in the assay with P-Akt (S473) and in the assay on P-4E-BP1 (T37/46) were below 1 nM, 3.16 to 31.6 nM and below 3.16 nM, respectively.

With `CO[C@H]1C[C@@H]2CC[C@@H](C)[C@@](O)(O2)C(=O)C(=O)N2CCCC[C@H]2C(=O)O[C@H]([C@H](C)C[C@@H]2CC[C@@H](OCc3cccc(-c4cnc(N5CCN(S(=O)(=O)CCc6cn(CCOCCOCCC(=O)NCCCCn7nc(-c8ccc9oc(N)nc9c8)c8c(N)ncnc87)nn6)CC5)nc4)c3)[C@H](OC)C2)CC(=O)[C@H](C)/C=C(\C)[C@@H](O)[C@@H](OC)C(=O)[C@H](C)C[C@H](C)/C=C/C=C/C=C/1C` [Example 28], the IC50 was below 1 nM in the assay on P-P70S6K (T389), 3.16 to 31.6 nM with P-Akt (S473) and below 3.16 nM in the assay on P-4E-BP1 (T37/46).

`CO[C@H]1C[C@@H]2CC[C@@H](C)[C@@](O)(O2)C(=O)C(=O)N2CCCC[C@H]2C(=O)O[C@H]([C@H](C)C[C@@H]2CC[C@H](n3nncc3-c3cccc(-c4cnc(N5CCN(Cc6cn(CCOCCOCCOCCOCCOCCC(=O)NCCCCn7nc(-c8ccc9oc(N)nc9c8)c8c(N)ncnc87)nn6)CC5)nc4)c3)[C@H](OC)C2)CC(=O)[C@H](C)/C=C(\C)[C@@H](O)[C@@H](OC)C(=O)[C@H](C)C[C@H](C)/C=C/C=C/C=C/1C` [Example 29]: the figures for the IC50 in the assay with P-P70S6K (T389), in the assay on P-Akt (S473) and in the assay with P-4E-BP1 (T37/46) were below 1 nM, 3.16 to 31.6 nM and below 3.16 nM, respectively.

For `CO[C@H]1C[C@@H]2CC[C@@H](C)[C@@](O)(O2)C(=O)C(=O)N2CCCC[C@H]2C(=O)O[C@H]([C@H](C)C[C@@H]2CC[C@H](n3nncc3-c3cccc(-c4cnc(N5CCN(Cc6cn(CCOCCOCCOCCOCCC(=O)NCCCCn7nc(-c8ccc9oc(N)nc9c8)c8c(N)ncnc87)nn6)CC5)nc4)c3)[C@H](OC)C2)CC(=O)[C@H](C)/C=C(\C)[C@@H](O)[C@@H](OC)C(=O)[C@H](C)C[C@H](C)/C=C/C=C/C=C/1C` [Example 30], the IC50 in the assay on P-P70S6K (T389) was below 1 nM; with P-Akt (S473) it was 3.16 to 31.6 nM; with P-4E-BP1 (T37/46) it was below 3.16 nM.

Take `CO[C@H]1C[C@@H]2CC[C@@H](C)[C@@](O)(O2)C(=O)C(=O)N2CCCC[C@H]2C(=O)O[C@H]([C@H](C)C[C@@H]2CC[C@H](n3nncc3-c3cccc(-c4cnc(N5CCN(Cc6cn(CCOCCOCCOCCC(=O)NCCCCn7nc(-c8ccc9oc(N)nc9c8)c8c(N)ncnc87)nn6)CC5)nc4)c3)[C@H](OC)C2)CC(=O)[C@H](C)/C=C(\C)[C@@H](O)[C@@H](OC)C(=O)[C@H](C)C[C@H](C)/C=C/C=C/C=C/1C` [Example 31]: the IC50 in the assay with P-P70S6K (T389) was below 1 nM; with P-Akt (S473) it was 3.16 to 31.6 nM; with P-4E-BP1 (T37/46) it was below 3.16 nM.

Regarding `CO[C@H]1C[C@@H]2CC[C@@H](C)[C@@](O)(O2)C(=O)C(=O)N2CCCC[C@H]2C(=O)O[C@H]([C@H](C)C[C@@H]2CC[C@H](n3nncc3-c3cccc(-c4cnc(N5CCN(Cc6cn(CCOCCOCCOCCOCCOCCC(=O)NCCCCn7nc(-c8ccc9oc(N)nc9c8)c8c(N)ncnc87)nn6)C(CO)C5)nc4)c3)[C@H](OC)C2)CC(=O)[C@H](C)/C=C(\C)[C@@H](O)[C@@H](OC)C(=O)[C@H](C)C[C@H](C)/C=C/C=C/C=C/1C` (stereo partly drawn) [Example 32], the IC50 in the assay on P-P70S6K (T389) is 1 to 10 nM; in the assay on P-Akt (S473) it was 3.16 to 31.6 nM; with P-4E-BP1 (T37/46) it was 3.16 to 31.6 nM.

For the compound `CO[C@H]1C[C@@H]2CC[C@@H](C)[C@@](O)(O2)C(=O)C(=O)N2CCCC[C@H]2C(=O)O[C@H]([C@H](C)C[C@@H]2CC[C@H](n3nncc3-c3cccc(-c4cnc(N5CCN(Cc6cn(CCOCCOCCOCCOCCC(=O)NCCCCn7nc(-c8ccc9oc(N)nc9c8)c8c(N)ncnc87)nn6)C(CO)C5)nc4)c3)[C@H](OC)C2)CC(=O)[C@H](C)/C=C(\C)[C@@H](O)[C@@H](OC)C(=O)[C@H](C)C[C@H](C)/C=C/C=C/C=C/1C` (stereo partly drawn) [Example 33], the IC50 in the assay on P-P70S6K (T389) is 1 to 10 nM; in the assay with P-Akt (S473) it was 3.16 to 31.6 nM; in the assay with P-4E-BP1 (T37/46), 3.16 to 31.6 nM.

As for `CO[C@H]1C[C@@H]2CC[C@@H](C)[C@@](O)(O2)C(=O)C(=O)N2CCCC[C@H]2C(=O)O[C@H]([C@H](C)C[C@@H]2CC[C@H](n3nncc3-c3cccc(-c4cnc(N5CCN(Cc6cn(CCOCCOCCOCCC(=O)NCCCCn7nc(-c8ccc9oc(N)nc9c8)c8c(N)ncnc87)nn6)C(CO)C5)nc4)c3)[C@H](OC)C2)CC(=O)[C@H](C)/C=C(\C)[C@@H](O)[C@@H](OC)C(=O)[C@H](C)C[C@H](C)/C=C/C=C/C=C/1C` (stereo partly drawn) [Example 34], the IC50 was 1 to 10 nM with P-P70S6K (T389), 31.6 to 1000 nM in the assay with P-Akt (S473) and 3.16 to 31.6 nM in the assay with P-4E-BP1 (T37/46).

In the case of `CO[C@H]1C[C@@H]2CC[C@@H](C)[C@@](O)(O2)C(=O)C(=O)N2CCCC[C@H]2C(=O)O[C@H]([C@H](C)C[C@@H]2CC[C@H](n3nncc3-c3cccc(-c4cnc(N5CCN(S(=O)(=O)CCc6cn(CCOCCOCCOCCC(=O)NCCCCn7nc(-c8ccc9oc(N)nc9c8)c8c(N)ncnc87)nn6)CC5)nc4)c3)[C@H](OC)C2)CC(=O)[C@H](C)/C=C(\C)[C@@H](O)[C@@H](OC)C(=O)[C@H](C)C[C@H](C)/C=C/C=C/C=C/1C` [Example 35], the results for the IC50 with P-P70S6K (T389), in the assay on P-Akt (S473) and with P-4E-BP1 (T37/46) were below 1 nM, 3.16 to 31.6 nM and below 3.16 nM, respectively.

For the compound `CO[C@H]1C[C@@H]2CC[C@@H](C)[C@@](O)(O2)C(=O)C(=O)N2CCCC[C@H]2C(=O)O[C@H]([C@H](C)C[C@@H]2CC[C@H](n3nncc3-c3cccc(-c4cnc(N5CCN(S(=O)(=O)CCc6cn(CCOCCOCCC(=O)NCCCCn7nc(-c8ccc9oc(N)nc9c8)c8c(N)ncnc87)nn6)CC5)nc4)c3)[C@H](OC)C2)CC(=O)[C@H](C)/C=C(\C)[C@@H](O)[C@@H](OC)C(=O)[C@H](C)C[C@H](C)/C=C/C=C/C=C/1C` [Example 36], the IC50 is below 1 nM in the assay with P-P70S6K (T389), 3.16 to 31.6 nM with P-Akt (S473) and 3.16 to 31.6 nM in the assay on P-4E-BP1 (T37/46).

Consider `CO[C@H]1C[C@@H]2CC[C@@H](C)[C@@](O)(O2)C(=O)C(=O)N2CCCC[C@H]2C(=O)O[C@H]([C@H](C)C[C@@H]2CC[C@H](n3nncc3-c3cccc(-c4cnc(N5CCN(S(=O)(=O)CCc6cn(CCOCCOCCOCCOCC(=O)NCCCCn7nc(-c8ccc9oc(N)nc9c8)c8c(N)ncnc87)nn6)CC5)nc4)c3)[C@H](OC)C2)CC(=O)[C@H](C)/C=C(\C)[C@@H](O)[C@@H](OC)C(=O)[C@H](C)C[C@H](C)/C=C/C=C/C=C/1C` [Example 37], for which the IC50 was below 1 nM in the assay on P-P70S6K (T389), 3.16 to 31.6 nM with P-Akt (S473) and below 3.16 nM with P-4E-BP1 (T37/46).

`COC(=O)NC1C[C@@H]2CC[C@@H](C)[C@@](O)(O2)C(=O)C(=O)N2CCCC[C@H]2C(=O)O[C@H]([C@H](C)C[C@@H]2CC[C@@H](OCCCCc3cn(CCOCCOCCOCCOCCOCCOCCOCCOCCC(=O)NCCCCn4nc(-c5ccc6oc(N)nc6c5)c5c(N)ncnc54)nn3)[C@H](OC)C2)CC(=O)[C@H](C)/C=C(\C)[C@@H](O)[C@@H](OC)C(=O)[C@H](C)C[C@H](C)/C=C/C=C/C=C/1C` (stereo partly drawn) [Example 38]: the IC50 was 1 to 10 nM with P-P70S6K (T389), 31.6 to 1000 nM in the assay with P-Akt (S473) and 3.16 to 31.6 nM with P-4E-BP1 (T37/46).

In the case of `COC(=O)NC1C[C@@H]2CC[C@@H](C)[C@@](O)(O2)C(=O)C(=O)N2CCCC[C@H]2C(=O)O[C@H]([C@H](C)C[C@@H]2CC[C@@H](OCCCCc3cn(CCOCCOCCOCCOCCOCCOCCC(=O)NCCCCn4nc(-c5ccc6oc(N)nc6c5)c5c(N)ncnc54)nn3)[C@H](OC)C2)CC(=O)[C@H](C)/C=C(\C)[C@@H](O)[C@@H](OC)C(=O)[C@H](C)C[C@H](C)/C=C/C=C/C=C/1C` (stereo partly drawn) [Example 39], the IC50 in the assay with P-P70S6K (T389) is 1 to 10 nM; with P-Akt (S473), 31.6 to 1000 nM; with P-4E-BP1 (T37/46), 31.6 to 1000 nM.

Consider `CO[C@H]1C[C@@H]2CC[C@@H](C)[C@@](O)(O2)C(=O)C(=O)N2CCCC[C@H]2C(=O)O[C@H]([C@H](C)C[C@@H]2CC[C@@H](OCCCCc3cn(CCOCCOCCOCCOCCOCCOCCOCCOCCC(=O)NCCCCn4nc(-c5cccc(C(=O)NC6=NCCS6)c5)c5c(N)ncnc54)nn3)[C@H](OC)C2)CC(=O)[C@H](C)/C=C(\C)[C@@H](O)[C@@H](OC)C(=O)[C@H](C)C[C@H](C)/C=C/C=C/C=C/1C` [Example 40], for which the IC50 in the assay on P-P70S6K (T389) was below 1 nM; in the assay with P-Akt (S473) it was 31.6 to 1000 nM; in the assay with P-4E-BP1 (T37/46), below 3.16 nM.
